Earlier results in US20170252373A1, “COMBINATION THERAPY FOR THE TREATMENT OF HAIR LOSS” (priority 2016, published 2017).

System: male-pattern hair loss
Conditions: within three months of starting treatment; also at 24 and 48 months with continued use

CC(C)(C)NC(=O)[C@H]1CC[C@H]2[C@@H]3CC[C@H]4NC(=O)C=C[C@]4(C)[C@H]3CC[C@]12C [finasteride]
hair on the scalp: Increased hair on the scalp
